Results: PMC6201879, “N-substituted phenylbenzamides of the niclosamide chemotype attenuate obesity related changes in high fat diet fed mice” (PLoS ONE, 2018)
Where two headings read alike, the source gives them in different places.

Tests used:
[1] = system: Salmonella typhimurium TA100; conditions: for Mean Revertant Colony Counts TA-100 SP9+: with S9; for Mean Revertant Colony Counts TA-100 S9-: without S9; for fold increase in the mean number of revertant colonies, TA100: any concentration tested, vs negative control
[2] = system: Salmonella typhimurium TA98; assay: Ames assay, strain TA98; conditions: for Mean Revertant Colony Counts TA98 SP9+: with S9; for Mean Revertant Colony Counts TA98 S9-: without S9
[3] = Metabolic stability in human liver microsomes; type: in vitro ADME; conditions: for Remaining Percentage of 60 min (%), Human, Tested Sample: 0.5mg/ml microsomes and 1mM NADPH; for Remaining Percentage of 60 min (%), Human, Negative Control: 0.5mg/ml microsomes without NADPH; for Remaining Percentage of 60 min (%), Human, Heat-inactivated Control: heat inactivated microsomes without NADPH
How it was run: (§1)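 Microsomes at 0.5 mg/ml in 100 mM phosphate buffer with 5 mM MgCl2, run with 1 mM NADPH, without NADPH, and heat-inactivated without NADPH. Timed samples quenched in cold acetonitrile with internal standards; parent measured by LC/MS/MS (MRM), duplicates.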

[4] = system: HEK293 cells stably transduced with the human OCT3 transporter; assay: Cellular oxygen consumption rate (OCR), MitoXpress Xtra; type: cell-based; conditions: HEK293 cells expressing human OCT3
How it was run: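 HEK293 cells stably expressing human OCT3, treated with four compound concentrations; oxygen consumption followed by MitoXpress Xtra TR-F lifetime (340/650 nm) every 2 min for 2 h. Lifetime slope from the linear portion taken as OCR; FCCP (1 μM) as stimulated control, differences versus DMSO by t-test.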

[5] = system: PH5CH8 liver cells; assay: High-throughput hepatic de novo lipogenesis (DNL) assay, high content imaging of steatotic phenotype; type: cell-based, human; conditions: for IC50: Homo sapiens
[6] = Metabolic stability in mouse liver microsomes; type: in vitro ADME; conditions: for Remaining Percentage of 60 min (%), Mouse, Tested Sample: 0.5mg/ml microsomes and 1mM NADPH; for Remaining Percentage of 60 min (%), Mouse, Negative Control: 0.5mg/ml microsomes without NADPH; for Remaining Percentage of 60 min (%), Mouse, Heat-inactivated Control: heat inactivated microsomes without NADPH
How it was run: as §1

[7] = PH5CH8 liver cells, 10-point dose response between 1μM and 1.9nM, read-out: IC50 (uM), inhibition of steatotic phenotype in DNL assay

## CC(C)(C)c1ccc(O)c(C(=O)Nc2cc(C(=O)O)ccc2Cl)c1 [Compound 600494, 3-{[2-Hydroxy-5-(tert-butyl)benzene]amido}-4chloro-benzoic acid]
[1]; 1.5 ug/Well
  Mean Revertant Colony Counts TA-100 SP9+: 20.7
  Mean Revertant Colony Counts TA-100 S9-: 30.0
[1]; 4 ug/Well
  Mean Revertant Colony Counts TA-100 SP9+: 17.3
  Mean Revertant Colony Counts TA-100 S9-: 27.0
[1]; 10 ug/Well
  Mean Revertant Colony Counts TA-100 SP9+: 18.0
  Mean Revertant Colony Counts TA-100 S9-: 25.0
[1]; 25 ug/Well
  Mean Revertant Colony Counts TA-100 SP9+: 22.0
  Mean Revertant Colony Counts TA-100 S9-: 24.0
[1]; 64 ug/Well
  Mean Revertant Colony Counts TA-100 SP9+: 16.3
  Mean Revertant Colony Counts TA-100 S9-: 33.0
[1]; 160 ug/Well
  Mean Revertant Colony Counts TA-100 SP9+: 21.0
  Mean Revertant Colony Counts TA-100 S9-: 25.7
[1]; 400 ug/Well
  Mean Revertant Colony Counts TA-100 SP9+: 21.3
  Mean Revertant Colony Counts TA-100 S9-: 22.3
[1]; 1000 ug/Well
  Mean Revertant Colony Counts TA-100 SP9+: 20.3
  Mean Revertant Colony Counts TA-100 S9-: 17.7
[1]
  fold increase in the mean number of revertant colonies, TA100: < 2 fold
[2]; 1.5 ug/Well
  Mean Revertant Colony Counts TA98 SP9+: 8.7
  Mean Revertant Colony Counts TA98 S9-: 7.3
[2]; 4 ug/Well
  Mean Revertant Colony Counts TA98 SP9+: 9.3
  Mean Revertant Colony Counts TA98 S9-: 7.7
[2]; 10 ug/Well
  Mean Revertant Colony Counts TA98 SP9+: 7.7
  Mean Revertant Colony Counts TA98 S9-: 7.3
[2]; 25 ug/Well
  Mean Revertant Colony Counts TA98 SP9+: 12.0
  Mean Revertant Colony Counts TA98 S9-: 6.7
[2]; 64 ug/Well
  Mean Revertant Colony Counts TA98 SP9+: 8.0
  Mean Revertant Colony Counts TA98 S9-: 6.0
[2]; 160 ug/Well
  Mean Revertant Colony Counts TA98 SP9+: 15.7
  Mean Revertant Colony Counts TA98 S9-: 11.7
[2]; 400 ug/Well
  Mean Revertant Colony Counts TA98 SP9+: 10.3
  Mean Revertant Colony Counts TA98 S9-: 14.0
[2]; 400 μg/well in the absence of S9 mix
  fold increase in revertant colonies, TA98: ≥ 2 fold
[2]; 1000 ug/Well
  Mean Revertant Colony Counts TA98 SP9+: 11.3
  Mean Revertant Colony Counts TA98 S9-: 10.7
[3]
  Remaining Percentage of 60 min (%), Human, Tested Sample: 99.4%
  Remaining Percentage of 60 min (%), Human, Negative Control: 92.8%
  Remaining Percentage of 60 min (%), Human, Heat-inactivated Control: 114.2%
[4]; compared to DMSO control, 2 hours
  change in respiration / oxygen consumption rate (OCR): no change in respiration
[5]; [7]
  IC50: 0.004 µM
[5]; S1 Table. SAR for N-Substituted Phenylbenzamides, read-out: IC50
  IC50: 0.0039 µM
[5]; S1 Table. SAR for N-Substituted Phenylbenzamides
  Active/Inactive: Active
[6]
  Remaining Percentage of 60 min (%), Mouse, Tested Sample: 109.6%
  Remaining Percentage of 60 min (%), Mouse, Negative Control: 68.9%
  Remaining Percentage of 60 min (%), Mouse, Heat-inactivated Control: 98.5%

## CC(C)(C)c1cc(C(=O)Nc2ccc(C(=O)O)cc2Cl)c(O)c(C(C)(C)C)c1 [Compound 600453, 3-Chloro-4-[(3,5-di-tert-butyl-2-hydroxybenzene)amido]benzoic acid]
[1]; 1.5 ug/Well
  Mean Revertant Colony Counts TA-100 SP9+: 17.3
  Mean Revertant Colony Counts TA-100 S9-: 35.0
[1]; 4 ug/Well
  Mean Revertant Colony Counts TA-100 SP9+: 21.3
  Mean Revertant Colony Counts TA-100 S9-: 30.0
[1]; 10 ug/Well
  Mean Revertant Colony Counts TA-100 SP9+: 27.0
  Mean Revertant Colony Counts TA-100 S9-: 33.3
[1]; 25 ug/Well
  Mean Revertant Colony Counts TA-100 SP9+: 34.0
  Mean Revertant Colony Counts TA-100 S9-: 24.0
[1]; 64 ug/Well
  Mean Revertant Colony Counts TA-100 SP9+: 31.7
  Mean Revertant Colony Counts TA-100 S9-: 26.3
[1]; 160 ug/Well
  Mean Revertant Colony Counts TA-100 SP9+: 24.3
  Mean Revertant Colony Counts TA-100 S9-: 21.3
[1]; 400 ug/Well
  Mean Revertant Colony Counts TA-100 SP9+: 29.3
  Mean Revertant Colony Counts TA-100 S9-: 8.0
[1]; 1000 ug/Well
  Mean Revertant Colony Counts TA-100 SP9+: 15.7
  Mean Revertant Colony Counts TA-100 S9-: 2.7
[1]
  fold increase in the mean number of revertant colonies, TA100: < 2 fold
[2]; 1.5 ug/Well
  Mean Revertant Colony Counts TA98 SP9+: 5.0
  Mean Revertant Colony Counts TA98 S9-: 4.3
[2]; 4 ug/Well
  Mean Revertant Colony Counts TA98 SP9+: 8.3
  Mean Revertant Colony Counts TA98 S9-: 3.7
[2]; 10 ug/Well
  Mean Revertant Colony Counts TA98 SP9+: 7.7
  Mean Revertant Colony Counts TA98 S9-: 3.3
[2]; 25 ug/Well
  Mean Revertant Colony Counts TA98 SP9+: 6.3
  Mean Revertant Colony Counts TA98 S9-: 3.0
[2]; 64 ug/Well
  Mean Revertant Colony Counts TA98 SP9+: 8.7
  Mean Revertant Colony Counts TA98 S9-: 6.0
[2]; 160 ug/Well
  Mean Revertant Colony Counts TA98 SP9+: 6.3
  Mean Revertant Colony Counts TA98 S9-: 3.7
[2]; 400 ug/Well
  Mean Revertant Colony Counts TA98 SP9+: 7.3
  Mean Revertant Colony Counts TA98 S9-: 2.0
[2]; 1000 ug/Well
  Mean Revertant Colony Counts TA98 SP9+: 4.0
  Mean Revertant Colony Counts TA98 S9-: 3.7
[2]; any concentration tested, vs negative control
  fold increase in the mean number of revertant colonies, TA98: < 2 fold
[3]
  Remaining Percentage of 60 min (%), Human, Tested Sample: 58.8%
  Remaining Percentage of 60 min (%), Human, Negative Control: 92.2%
  Remaining Percentage of 60 min (%), Human, Heat-inactivated Control: 93.7%
[4]; four concentrations
  concentration dependence of OCR change: significantly decreased OCR at all concentrations above 300nM
[5]; [7]
  IC50: 0.14 µM
[5]; S1 Table, SAR for N-Substituted Phenylbenzamides, read-out: IC50
  IC50: 0.091 µM
[5]; S1 Table, SAR for N-Substituted Phenylbenzamides
  Active/Inactive: Active
[6]
  Remaining Percentage of 60 min (%), Mouse, Tested Sample: 88.1%
  Remaining Percentage of 60 min (%), Mouse, Negative Control: 109.7%
  Remaining Percentage of 60 min (%), Mouse, Heat-inactivated Control: 91.4%
[6]; 60 minutes
  stability in MLM: stable
